{
  "source": "ChEMBL document CHEMBL1201862",
  "about": "“PubChem BioAssay data set” (2004)",
  "test_in_all_cases": "NCI anticancer screen, dose series, 48 h",
  "key": {"SN12C": {"tested_on": "SN12C"}, "HOP-62": {"tested_on": "HOP-62"}, "SK-MEL-2": {"tested_on": "SK-MEL-2"}, "U-251": {"tested_on": "U-251"}, "SK-MEL-28": {"tested_on": "SK-MEL-28"}, "NCI-H226": {"tested_on": "NCI-H226"}, "SF-539": {"tested_on": "SF-539"}, "HL-60": {"tested_on": "HL-60"}, "SF-295": {"tested_on": "SF-295"}, "A498": {"tested_on": "A498"}, "M14": {"tested_on": "M14"}, "OVCAR-8": {"tested_on": "OVCAR-8"}, "TK-10": {"tested_on": "TK-10"}, "HCT-15": {"tested_on": "HCT-15"}, "RXF 631": {"tested_on": "RXF 631"}, "UACC-257": {"tested_on": "UACC-257"}, "A549": {"tested_on": "A549"}, "OVCAR-5": {"tested_on": "OVCAR-5"}, "RPMI-8226": {"tested_on": "RPMI-8226"}, "DLD-1": {"tested_on": "DLD-1"}, "EKVX": {"tested_on": "EKVX"}, "OVCAR-3": {"tested_on": "OVCAR-3"}, "NCI-H23": {"tested_on": "NCI-H23"}, "UO-31": {"tested_on": "UO-31"}, "K562": {"tested_on": "K562"}, "COLO 205": {"tested_on": "COLO 205"}, "ACHN": {"tested_on": "ACHN"}, "786-0": {"tested_on": "786-0"}, "HCT-116": {"tested_on": "HCT-116"}, "Malme-3M": {"tested_on": "Malme-3M"}, "LXFL 529": {"tested_on": "LXFL 529"}, "HOP-18": {"tested_on": "HOP-18"}, "SNB-75": {"tested_on": "SNB-75"}, "IGROV-1": {"tested_on": "IGROV-1"}, "KM-20L2": {"tested_on": "KM-20L2"}, "XF498": {"tested_on": "XF498"}, "M19-MEL": {"tested_on": "M19-MEL"}, "UACC-62": {"tested_on": "UACC-62"}, "LOX IMVI": {"tested_on": "LOX IMVI"}, "OVCAR-4": {"tested_on": "OVCAR-4"}, "HCC 2998": {"tested_on": "HCC 2998"}, "KM12": {"tested_on": "KM12"}, "SNB-78": {"tested_on": "SNB-78"}, "DMS-273": {"tested_on": "DMS-273"}, "CAKI-1": {"tested_on": "CAKI-1"}, "CCRF-CEM": {"tested_on": "CCRF-CEM"}, "SK-MEL-5": {"tested_on": "SK-MEL-5"}, "SF-268": {"tested_on": "SF-268"}, "MOLT-4": {"tested_on": "MOLT-4"}, "RXF 393": {"tested_on": "RXF 393"}, "HT-29": {"tested_on": "HT-29"}, "DMS-114": {"tested_on": "DMS-114"}, "SW-620": {"tested_on": "SW-620"}, "NCI-H460": {"tested_on": "NCI-H460"}},
  "note": "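Growth conditions: 96-well plates. Treatment: test compound, 48 hours, 5 concentrations. Analysis: linear interpolation between bracketing concentrations; unreached endpoints set to highest concentration. GI50 marks 50% less growth.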 Calls of active or inactive are those of the source. No stated cut-off is given here; in the data, active = GI50 up to about 1.1 µM and inactive = higher.",
  "data": [
    {"compound": "CC(=O)N(C)c1ccc2c(ccc[n+]2[O-])c1[N+](=O)[O-]", "values": [
      {"measurement": "GI50", "setting": "SN12C", "result": "> 100 µM (inactive)"},
      {"measurement": "GI50", "setting": "HOP-62", "result": "> 100 µM (inactive)"},
      {"measurement": "GI50", "setting": "SK-MEL-2", "result": "> 100 µM (inactive)"},
      {"measurement": "GI50", "setting": "U-251", "result": "> 100 µM (inactive)"},
      {"measurement": "GI50", "setting": "SK-MEL-28", "result": "> 100 µM (inactive)"},
      {"measurement": "GI50", "setting": "NCI-H226", "result": "> 100 µM (inactive)"},
      {"measurement": "GI50", "setting": "SF-539", "result": "> 100 µM (inactive)"},
      {"measurement": "GI50", "setting": "HL-60", "result": "> 100 µM (inactive)"},
      {"measurement": "GI50", "setting": "SF-295", "result": "> 100 µM (inactive)"},
      {"measurement": "GI50", "setting": "A498", "result": "> 100 µM (inactive)"},
      {"measurement": "GI50", "setting": "M14", "result": "> 100 µM (inactive)"},
      {"measurement": "GI50", "setting": "OVCAR-8", "result": "> 100 µM (inactive)"},
      {"measurement": "GI50", "setting": "TK-10", "result": "> 100 µM (inactive)"},
      {"measurement": "GI50", "setting": "HCT-15", "result": "> 100", "unit": "µM"},
      {"measurement": "GI50", "setting": "RXF 631", "result": "> 100 µM (inactive)"},
      {"measurement": "GI50", "setting": "UACC-257", "result": "> 100 µM (inactive)"},
      {"measurement": "GI50", "setting": "A549", "result": "> 100 µM (inactive)"},
      {"measurement": "GI50", "setting": "OVCAR-5", "result": "> 100 µM (inactive)"},
      {"measurement": "GI50", "setting": "RPMI-8226", "result": "> 100 µM (inactive)"},
      {"measurement": "GI50", "setting": "DLD-1", "result": "> 100 µM (inactive)"},
      {"measurement": "GI50", "setting": "EKVX", "result": "> 100 µM (inactive)"},
      {"measurement": "GI50", "setting": "OVCAR-3", "result": "> 100 µM (inactive)"},
      {"measurement": "GI50", "setting": "NCI-H23", "result": "> 100 µM (inactive)"},
      {"measurement": "GI50", "setting": "UO-31", "result": "> 100 µM (inactive)"},
      {"measurement": "GI50", "setting": "K562", "result": "> 100 µM (inactive)"},
      {"measurement": "GI50", "setting": "COLO 205", "result": "> 100 µM (inactive)"},
      {"measurement": "GI50", "setting": "ACHN", "result": "> 100 µM (inactive)"},
      {"measurement": "GI50", "setting": "786-0", "result": "> 100 µM (inactive)"},
      {"measurement": "GI50", "setting": "HCT-116", "result": "> 100 µM (inactive)"},
      {"measurement": "GI50", "setting": "Malme-3M", "result": "> 100 µM (inactive)"},
      {"measurement": "GI50", "setting": "LXFL 529", "result": "> 100 µM (inactive)"},
      {"measurement": "GI50", "setting": "HOP-18", "result": "> 100 µM (inactive)"},
      {"measurement": "GI50", "setting": "SNB-75", "result": "> 100 µM (inactive)"},
      {"measurement": "GI50", "setting": "IGROV-1", "result": "> 100 µM (inactive)"},
      {"measurement": "GI50", "setting": "KM-20L2", "result": "> 100 µM (inactive)"},
      {"measurement": "GI50", "setting": "XF498", "result": "> 100 µM (inactive)"},
      {"measurement": "GI50", "setting": "M19-MEL", "result": "> 100 µM (inactive)"},
      {"measurement": "GI50", "setting": "UACC-62", "result": "> 100 µM (inactive)"},
      {"measurement": "GI50", "setting": "LOX IMVI", "result": "> 100 µM (inactive)"},
      {"measurement": "GI50", "setting": "OVCAR-4", "result": "> 100 µM (inactive)"},
      {"measurement": "GI50", "setting": "HCC 2998", "result": "> 100 µM (inactive)"},
      {"measurement": "GI50", "setting": "KM12", "result": "> 100 µM (inactive)"},
      {"measurement": "GI50", "setting": "SNB-78", "result": "> 100 µM (inactive)"},
      {"measurement": "GI50", "setting": "DMS-273", "result": "> 100 µM (inactive)"},
      {"measurement": "GI50", "setting": "CAKI-1", "result": "> 100 µM (inactive)"},
      {"measurement": "GI50", "setting": "CCRF-CEM", "result": "> 100 µM (inactive)"},
      {"measurement": "GI50", "setting": "SK-MEL-5", "result": "> 100 µM (inactive)"},
      {"measurement": "GI50", "setting": "SF-268", "result": "> 100 µM (inactive)"},
      {"measurement": "GI50", "setting": "MOLT-4", "result": "> 100 µM (inactive)"},
      {"measurement": "GI50", "setting": "RXF 393", "result": "> 100 µM (inactive)"},
      {"measurement": "GI50", "setting": "HT-29", "result": "> 100 µM (inactive)"},
      {"measurement": "GI50", "setting": "DMS-114", "result": "> 100 µM (inactive)"},
      {"measurement": "GI50", "setting": "SW-620", "result": "> 100 µM (inactive)"},
      {"measurement": "GI50", "setting": "NCI-H460", "result": "> 100 µM (inactive)"}
    ]}
  ]
}
